Source: ChEMBL document CHEMBL4041480, “Natural and synthetic bioactive inhibitors of glycogen synthase kinase” (Eur J Med Chem, 2017)
Values belong to the molecule of their own block, whether it stands above or below them.

Tests used:
[1] = biological target: T1, Glycogen synthase kinase-3 beta (Homo sapiens, UniProt P49841)
[2] = biological target: T1, Glycogen synthase kinase-3 beta; remark: listed apart in the source
[3] = biological target: T1, Glycogen synthase kinase-3 beta; remark: listed apart in the source
Description: Inhibition of full length recombinant human His-tagged GSK3beta expressed in baculovirus expression system using Ser/Thr 9 peptide substrate by Z'-LYTE assay

[4] = biological target: T1, Glycogen synthase kinase-3 beta; remark: listed apart in the source
Description: Inhibition of GST-tagged GSK3beta (unknown origin) expressed in Escherichia coli BL21-CodonPlus (DE3) by Z'-LYTE assay

T1 sequence (P49841 whole entry): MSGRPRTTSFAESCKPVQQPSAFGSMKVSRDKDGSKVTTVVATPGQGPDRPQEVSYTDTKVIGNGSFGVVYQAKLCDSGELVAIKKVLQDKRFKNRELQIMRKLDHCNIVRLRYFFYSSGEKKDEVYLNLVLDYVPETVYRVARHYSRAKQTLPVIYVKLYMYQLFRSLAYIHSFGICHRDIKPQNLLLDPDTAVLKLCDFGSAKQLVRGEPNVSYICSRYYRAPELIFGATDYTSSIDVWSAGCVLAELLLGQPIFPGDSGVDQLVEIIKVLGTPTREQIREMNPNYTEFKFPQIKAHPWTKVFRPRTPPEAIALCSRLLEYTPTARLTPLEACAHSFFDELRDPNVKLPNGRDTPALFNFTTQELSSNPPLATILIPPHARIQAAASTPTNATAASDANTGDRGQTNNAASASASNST

IC50 [3]: 0.73 nM
SMILES: O=C1NC(=O)C(c2cn(CCC3N=CC=N3)c3ccccc23)=C1c1noc2ccccc12

IC50 [4]: 340 nM
SMILES: Cn1cc(C2=C(c3nn(CCCN4CCOCC4)c4ncccc34)C(=O)NC2=O)c2ccccc21

Second part, the molecule before the results:

SMILES: [Zn]
IC50 [1]: 15000 nM

SMILES: N=C1N[C@H]2c3c([nH]c(Br)c3Br)C(=O)C3CCC[C@@]32N1 (stereo not given in full)
IC50 [1]: 3000 nM

SMILES: O=c1[nH]nc2c(NCCc3ccncc3)cc(Cl)cn12
IC50 [2]: 111 nM
